Laboratory results from patent publication US5126258A (priority 1988, dated 1992).

What was measured:
22F5 = assay: Hydrolysis of reactant ligands by receptor 22F5; format: biochemical, mouse; set-up: key to hydrolysis by 22F5, symbol: --: No hydrolysis observed; details: pH 8.0; for hydrolysis by 22F5, symbol: 19: 2/5 uM, 21: 5/10 uM receptor/ligand
Method: (§1) ^1 Preliminary initial hydrolyses shown as the percentage of admixed
(§2) reactant ligand consumed for catalyzed and spontaneous hydrolyses. "--" =
(§3) No hydrolysis observed. "NT" = Not tried. All reactions were carried out
(§4) at pH 8.0 in a 50 mM phosphate buffer unless otherwise noted. Hydrolytic
(§5) percentages were determined by HPLC using a Hitachi model 655A12 liquid
(§6) chromatograph with a C18 Vydac 201TP54 column, except as noted below.
(§7) Mixtures of acetonitrile a nd water containing 0.1 percent trichloroaceti
(§8) acid [28:72-50:50 (v/v)] were used as elutant. Hydrolyses of Compounds 5
(§9) and 20 were assayed using fluorescence data.
(§10) ^2 Concentrations of receptor molecules (Rec.) and reactant ligands
(§11) (Lig.) in micromolar units, presuming a molecular weight of 150,000
(§12) daltons for each receptor molecule.
(§13) ^3 Reactant ligand (Lig.) used as substrate.
(§14) ^4 Time in hours that the reaction was permitted to take place.
(§15) ^5 Spontaneous hydrolytic percentages for the time period indicated.
(§16) ^6 Reaction carried out at pH 7.2 in a 50 mM phosphate buffer.

13E10 = assay: Hydrolysis of reactant ligands by receptor 13E10; format: biochemical, mouse; set-up: key to hydrolysis by 13E10, symbol: --: No hydrolysis observed; details: pH 8.0; for hydrolysis by 13E10, symbol: 19: 2/5 uM, 21: 5/10 uM receptor/ligand
Method: as §1, §2, §3, §4, §5, §6, §7, §8, §9, §10, §11, §12, §13, §14, §15, §16

1209 = assay: Hydrolysis of reactant ligands by receptor 12C9 (column head prints 1209); format: biochemical, mouse; set-up: key to hydrolysis by 1209, symbol: --: No hydrolysis observed; details: pH 8.0; for hydrolysis by 1209, symbol: 19: 2/5 uM, 21: 5/10 uM receptor/ligand
Method: as §1, §2, §3, §4, §5, §6, §7, §8, §9, §10, §11, §12, §13, §14, §15, §16

44A2 = assay: Hydrolysis of reactant ligands by receptor 44A2; format: biochemical, mouse; set-up: key to hydrolysis by 44A2, symbol: --: No hydrolysis observed; details: pH 8.0; for hydrolysis by 44A2, symbol: 19: 2/5 uM, 21: 5/10 uM receptor/ligand
Method: as §1, §2, §3, §4, §5, §6, §7, §8, §9, §10, §11, §12, §13, §14, §15, §16

37G2 = assay: Hydrolysis of reactant ligands by receptor 37G2; format: biochemical, mouse; set-up: key to hydrolysis by 37G2, symbol: --: No hydrolysis observed; details: pH 8.0; for hydrolysis by 37G2, symbol: 19: 2/5 uM, 21: 5/10 uM receptor/ligand
Method: as §1, §2, §3, §4, §5, §6, §7, §8, §9, §10, §11, §12, §13, §14, §15, §16

[1] = Spontaneous (uncatalyzed, background) hydrolysis; format: physicochemical; set-up: key to Spon. (spontaneous hydrolysis), symbol: --: No hydrolysis observed; details: for Spon. (spontaneous hydrolysis), symbol: pH 8.0
Method: The practical range of pH for the assay is limited by the rapid spontaneous rate of hydrolysis of an ester Compound 5 above pH 8.0. Initially, the ester was used at a concentration that was about four-fold greater than that of the protein, and the mixture was incubated at pH 7.2 for 10 minutes. Any change in fluorescence above background was noted.
The lack of spectroscopic distinction between such esters and their hydrolysis products recommended a chromatographic analysis of the process. Referring to FIG. 3, a mixture of Compound 7 (5 uM) and the monoclonal antibody from hybridoma P3 6D4 (0.1 uM) in phosphate buffer (50 mM, pH 8.0) was analyzed over time by high performance liquid chromatography (HPLC). The accelerated hydrolysis of the ester was apparent from the decrease of its peak and the concurrent increase in two new peaks that correspond with the expected products. Under these conditions, the ester is completely consumed in 60-80 minutes during which time the background rate accounts for about 12 to 16 percent hydrolysis. The chromatographic profile is the same as that produced by treatment with hog liver esterase.
^c The rate constants were determined spectrophotometrically (at 245
nm) by measuring initial rates at five concentrations of ester.
as §1, §2, §3, §4, §5, §6, §7, §8, §9, §15
Reaction kinetics were studied using three reactant ligands as substrates for monoclonal receptors 37G2 and 22F5. Data from initial rates were consistent with Michaelis-Menten reaction mechanism for a usual enzyme-substrate system. Initial rates were followed using at 271 nm using a U.V.-visible spectorphotometer for Compound 17, and a fluorescence spectrometer for Compounds 5 and 20, using an excitation wavelength of 355 nm and an emission wavelength of 455 nm for both compounds.

17G8 = assay: Hydrolysis of reactant ligands by receptor 17G8; format: biochemical, mouse; set-up: key to hydrolysis by 17G8, symbol: --: No hydrolysis observed; details: pH 8.0; for hydrolysis by 17G8, symbol: 19: 2/5 uM, 21: 5/10 uM receptor/ligand
Method: as §1, §2, §3, §4, §5, §6, §7, §8, §9, §10, §11, §12, §13, §14, §15, §16

21G2 = assay: Hydrolysis of reactant ligands by receptor 21G2; format: biochemical, mouse; set-up: key to hydrolysis by 21G2, symbol: --: No hydrolysis observed; details: pH 8.0; for hydrolysis by 21G2, symbol: 19: 2/5 uM, 21: 5/10 uM receptor/ligand
Method: as §1, §2, §3, §4, §5, §6, §7, §8, §9, §10, §11, §12, §13, §14, §15, §16

7E5 = assay: Hydrolysis of reactant ligands by receptor 7E5; format: biochemical, mouse; set-up: key to hydrolysis by 7E5, symbol: --: No hydrolysis observed; details: pH 8.0; for hydrolysis by 7E5, symbol: 19: 2/5 uM, 21: 5/10 uM receptor/ligand
Method: as §1, §2, §3, §4, §5, §6, §7, §8, §9, §10, §11, §12, §13, §14, §15, §16

[2] = test system: eight monoclonal receptors 21G2, 7E5, 37G2, 13E10, 12C9, 44A2, 17G8 and 22F5; assay: Catalyzed hydrolysis of reactant ligands by the eight QPN1 monoclonal receptors, summary; format: biochemical, mouse; details: pH 8.0
Method: Mice were hyperimmunized with the Compound 13-KLH conjugate over a three to four week time period. Sera were assayed in an ELISA using a Compound 13-BSA conjugate bound to microtiter plate wells as the solid-phase antigen. Cloned hybridomas were also screened using that ELISA assay.
Each of those catalyses could be inhibited by an appropriate analog-ligand. Thus, a relatively high percentage of induced monoclonal receptors was capable of catalyzing an esterolytic reaction. The reason for this relatively high percentage of useful receptors being induced is unknown, but could be due to the presence of phosphonamidate group nitrogen atom, as compared to a phosphonate oxygen atom, or to the quinoline nucleus of the analog-ligand. Those eight catalytic monoclonal receptors and the hybridomas that secrete them are identified by the laboratory designations "QPN1 7E5", "QPN1 12C9", "QPN1 13E10", "QPN1 17G8", "QPN1 21G2", "QPN1 22F5", "QPN1 37G2" and QPN1 44A2. The prefix "QPNI" is sometimes omitted herein when discussing these hybridomas and receptors.
Amide cleavage for Compounds 14 and 15 was assayed by analyzing for the production of free aminoquinaldine or aminonaphthalene by measuring the increase in the azo dye that results from derivatizing the free aminoquinaldine or aminonapthalene with a diazotization reagent.
Catalysis reactions were conducted by preparing a reaction admixture of 100 microliters (ul) total volume containing 5 micromolar (uM) monoclonal antibody, 50-75 uM amide reactant ligand substrate and a buffer described hereinafter. The buffer included in the above admixture varied depending upon the pH utilized as follows: pH 5, 10 […] sodium acetate, 10 mM sodium chloride; pH 7.2, 10 mM sodium phosphate, 0.15 molar (M) sodium chloride; pH 8.0; 50 mM sodium phosphate. The amide-containing substrates screened in this assay were added to the above admixture in 1 ul of a 100-fold concentrated stock solution of dimethyl formamide (DMF). Monoclonal antibody was added to the above admixture from a concentrated stock solution. The resulting admixture was placed into the well of a 96 well flat bottom microtiter plate (Costar, Cambridge, Mass.) and maintained in a moist vapor environment chamber at 23 degrees C. The production of aminoquinaldine or aminonaphthalene was then assayed as described below after 2,3,5, or 6 days.
The aminoquinaldine or aminonapthalene product produced by the catalyzed reaction was measured by first admixing 20 ul of 5M HCl, 80 ul acetone and 10 ul 0.5% (w/v) sodium nitrite to the reaction admixture to form a second admixture and maintaining that second admixture for 3 minutes at room temperature. Thereafter, 10 ul 2.5% (w/v) ammonium sulfamate was added to form a third admixture that was maintained for 2 minutes at room temperature. A still further 10 ul of 0.5% (w/v) N-(1-napthyl)ethylenediamine dihydrochloride was added to form a fourth admixture that was then maintained for 15 minutes at room temperature. Thereafter the resulting azo dye present in the fourth admixture was measured by absorbance spectroscopy at 540 nanometers (nm) for aminoquinaldine using a Model EL 309 Automated Microplate Reader (Bio-Tek Instruments, Winooski, Vt.).

[3] = receptor/ligand uM, time h: 17 1/10, 2, 18 2/10, 24, 20 2/10, 0.33, 5 1/5, 0.33, 22 5/10, 3.5, preliminary

SMILES | hydrolysis by 22F5, symbol (22F5) | hydrolysis by 13E10, symbol (13E10) | hydrolysis by 1209, symbol 1209 | hydrolysis by 44A2, symbol (44A2) | hydrolysis by 37G2, symbol (37G2) | Spon. (spontaneous hydrolysis), symbol [1] | hydrolysis by 17G8, symbol (17G8) | hydrolysis by 21G2, symbol (21G2) | hydrolysis by 7E5, symbol (7E5) | receptors (of eight) that catalyzed hydrolysis of the compound [2] | hydrolysis by 22F5 (22F5; [3]) | hydrolysis by 13E10 (13E10; [3]) | hydrolysis by 1209 1209; [3] | hydrolysis by 44A2 (44A2; [3]) | hydrolysis by 37G2 (37G2; [3]) | Spon. (spontaneous hydrolysis) ([1]; pH 8.0, 50 mM phosphate, time (h): 17 2, 18 24, 20 0.33, 5 0.33, 22 3.5) | hydrolysis by 17G8 (17G8; receptor/ligand uM, time h: 18 2/10, 24, 20 2/10, 0.33, 5 1/5, 0.33, 22 5/10, 3.5, preliminary) | hydrolysis by 21G2 (21G2; [3]) | hydrolysis by 7E5 (7E5; [3])
CC(=O)Nc1ccc(CC(=O)Oc2ccccc2NC(C)=O)cc1 [Compound 21] | -- | -- | -- | -- | -- | -- | -- | -- | -- | lack of hydrolysis |  |  |  |  |  |  |  |  | 
CC(=O)Oc1cccc2ccccc12 [Compound 18] |  |  |  |  |  |  |  |  |  | all of the receptors except 12C9 catalyzed the hydrolysis | 100 percentage of reactant ligand | 69 percentage of reactant ligand | 56 percentage of reactant ligand | 84 percentage of reactant ligand | 92 percentage of reactant ligand | 34 percentage of reactant ligand | 84 percentage of reactant ligand | 72 percentage of reactant ligand | 76 percentage of reactant ligand
COC(=O)Cc1ccc(NC(C)=O)cc1 [Compound 19] | -- | -- | -- | -- | -- | -- | -- | -- | -- | none of the receptors |  |  |  |  |  |  |  |  | 
CC(=O)Nc1ccc(CC(=O)Nc2cccc3ccc(C)nc23)cc1 [Compound 14] | -- | -- | -- | -- | -- | -- | -- | -- | -- | none of the receptors catalyzed hydrolysis |  |  |  |  |  |  |  |  | 
CC(=O)Nc1ccc(CC(=O)Oc2cccc3ccc(C)nc23)cc1 [Compound 16] | -- | -- | -- | -- | -- | -- | -- | -- | -- | failed to react |  |  |  |  |  |  |  |  | 
CC(=O)Nc1ccc(CC(=O)Nc2cccc3ccccc23)cc1 [Compound 15] | -- | -- | -- | -- | -- | -- | -- | -- | -- | none of the receptors catalyzed hydrolysis |  |  |  |  |  |  |  |  | 
